Results as given in ChEMBL document CHEMBL5223135, “Guanidine-based β amyloid precursor protein cleavage enzyme 1 (BACE-1) inhibitors for the Alzheimer's disease (AD): A review” (Bioorg Med Chem, 2022).

How the values were obtained:
[1] = Permeability in human Caco-2 cells; type: ADME, cell-based; settings: read-out: permeability
[2] = n-Octanol/water partition coefficient, logP of the compound; type: physicochemical
[3] = Aqueous solubility, logS of the compound; type: physicochemical; settings: buffer

| Papp [1] | logP [2] | logS0 [3] | Structure (SMILES) |
| --- | --- | --- | --- |
| 0.53 ×10⁻⁶ cm/s | – | – | C(=N\Nc1nnc(-c2cccs2)c(-c2cccs2)n1)/c1cc2ccccc2[nH]1 |
| – | 1.76 | -2.73 | N=C(Nc1cnc(F)c(F)c1)Nc1cnc(F)c(F)c1 |
| 0.57 ×10⁻⁶ cm/s | – | – | Cn1c(N/N=C/c2cccc(Cl)c2Cl)nc2ccccc2c1=O |
| 0.53 ×10⁻⁶ cm/s | – | – | O=[N+]([O-])c1ccc(-n2cc(COc3ccc(/C=N/Nc4nnc(-c5ccccc5)c(-c5ccccc5)n4)cc3)nn2)cc1 |
